Measurements published in patent US5340806A, “Composition containing organogermanium compound and immunity adjusting agent comprising the composition” (Sanwa Kagaku Kenkyusho Co., Ltd., priority 1984, dated 1994).
Read-outs that look alike come from different tables or passages of the source.

What was measured:
[1] = tested on: chronic B hepatitis; type: in vivo, human patients
Description: (§1) Search on effectiveness of the organogermanium compound to chronic B and non A non B hepatitises and preferable amount of dose thereof.
Therefore, 30 mg, 60 mg and 90 mg/day/body were set. Experimental period of time was set for 12 weeks.
(a) Examination of liver functions (GOT, GPT, A 1-P, and γ-GTP), and
(b) Examination with use of HBV markers (HBe-Ag, HBe-Ab and DNA-P).

[2] = tested on: chronic non A non B hepatitis; assay: Long term dosing in chronic non A non B hepatitis (In Vivo Utilization Example 6); set-up: species or system human patients; conditions: for Liver tissue improvement: Ballooning of cell: 4 patients; for Liver tissue improvement: Moderation of lobule: 8 patients; for Liver tissue improvement: Fatty degeneration: 9 patients; for Glisson's capsule improvement: Piecemeal necrosis: 13 patients; for Liver tissue improvement: Mobilization image of Kupfer cell: 16 patients; for Glisson's capsule improvement: Fibrosis / Glisson's capsule improvement: Round cell infiltration / Liver tissue improvement: Cobwebby necrosis / Liver tissue improvement: Degenerative necrosis in cell: 17 patients
Description: A capsule containing the organogermanium compound was dosed to patients infected with chronic non A non B hepatitis over a long period of time to check safety and effectiveness of the organogermanium compound.
(a) Number of patients for analyzation: 68 persons.
Group A: 39 persons (dose; 30 mg/day/body), and
Group B: 29 persons (dose; 60 mg/day/body).
(b) Mean dosing period of time
(c) Number of patients who continuously dose over 48 weeks

[3] = tested on: chronic non A non B hepatitis; assay: Chronic non A non B hepatitis, 15/30/60 mg/day, 12 weeks (Table 5B); type: in vivo, human patients
Description: Search on utility or effectiveness of the organogermanium compound on patients who are infected with chronic B hepatitis, or with non A non B hepatitis, and show "positive" to HBe antigen as well as a preferable amount of dose thereof.
The amount of dose has been set as follows, by taking the results given in In Vivo Utilization Example 1 into consideration.
(a) 60 mg/day/body showing most preferable data in effectiveness,
(b) 30 mg/day/body showing effectiveness in some Experiments, and
(c) 15 mg/day/body (for taking control data).
Experimental period of time was set for 12 weeks.
(a) Examination of liver functions (GOT, GPT, total bilirubin, LDH, y-GTP, and y-globulin), and
(b) Examination with use of HBV marker (HBe-Ag).

[4] = tested on: adjuvant arthritis in rats; assay: Adjuvant arthritis in rats; type: in vivo, S.D. male rats; conditions: 100 mg/kg/day oral, FIG. 12
Description: 0.05 ml of an adjuvant (prepared by suspending 0.6 mg of micobacteriumbutircum into 0.05 ml of liquid paraffin) was injected under the skin of a hind leg heel in S.D. male rats. After 1, 3, 5, 7, 21, and 28 days from the adjuvant dosage, the volume of the dosed and non-dosed legs was measured to determine a ratio of the edema.
The organogermanium compound was orally dosed for 28 days after the adjuvant dosage, in an amount of 1, 10 and 100 mg/kg/day, respectively.

[5] = tested on: positive Arthus reaction in guinea pigs; assay: Positive Arthus reaction in guinea pig; type: in vivo, Hartley male guinea pigs; conditions: 30 days, FIG. 11
Description: To 2% egg albumin solution, the same amount of Freund's complete adjuvant was added to prepare an emulsion. The emulsion was injected in 4 times by one time/week to Hartley male guinea pigs at a heel, under the skin and in the femoralis muscle, for sensitization. After 10 days from the final sensitization, 0.1 ml of 1% egg albumin solution was injected under the skin of the back to measure the area of resulting edema. The organogermanium compound was orally dosed for 30 days from the first sensitization in an amount of 0.1, 1.0 and 10 mg/kg/day.

[6] = tested on: chronic non A non B hepatitis; assay: Chronic non A non B hepatitis, 30/60/90 mg/day, 12 weeks (Table 4B); type: in vivo, human patients
Description: as §1
Therefore, 30 mg, 60 mg and 90 mg/day/body were set. Experimental period of time was set for 12 weeks. […]

[7] = tested on: chronic B hepatitis; assay: Chronic B hepatitis, 16 weeks, 30 mg/day/body (In Vivo Utilization Example 5); set-up: species or system human patients
[8] = 30 mg/day, patients of total 35
[9] = 60 mg/day, patients of total 26

## 3-oxygermylpropionic acid [Compound No. 1]
[1]; 30 mg/day
  Effectiveness (slight or more): 55%
  General judgement: Improvement (slight or more): 52%
  HBV markers: Improvement (slight or more): 36%
[1]; 30 mg/day, 12 weeks
  A 1-P change: .dwnarw. *
  DNA-P change: .dwnarw. +
  GOT change: .dwnarw. *
  GPT change: .dwnarw. +
  HBe-Ab change: .uparw. *
  HBe-Ag (log conversion) change: .dwnarw. **
  γ-GTP change: .dwnarw. *
[1]; 60 mg/day
  Effectiveness (slight or more): 47%
  General judgement: Improvement (slight or more): 37%
  HBV markers: Improvement (slight or more): 27%
[1]; 60 mg/day, 12 weeks
  HBe-Ab change: .uparw. +
[1]; 90 mg/day
  Effectiveness (slight or more): 47%
  General judgement: Improvement (slight or more): 43%
  HBV markers: Improvement (slight or more): 15%
[1]; 90 mg/day, 12 weeks
  HBe-Ab change: .uparw. **
[2]; 30 mg/day
  Ratio of improvement: Middle or more: 11.4%
  Ratio of improvement: Slight or more: 26.9%
[2]; [8]
  Getting worse (functions of liver): 3
  Middle improved (functions of liver): 2
  No change (functions of liver): 20
  Remarkably improved (functions of liver): 2
[2]; 60 mg/day
  Ratio of improvement: Middle or more: 34.3%
  Ratio of improvement: Slight or more: 57.7%
[2]; [9]
  Getting worse (functions of liver): 0
  Middle improved (functions of liver): 4
  No change (functions of liver): 11
  Remarkably improved (functions of liver): 3
[2]; ≥middle, 1/17
  Liver tissue improvement: Evaluation: 5.9%
[2]; ≥middle, 3 patients
  Liver tissue improvement: Bridging necrosis: 0%
[2]; ≥middle
  Liver tissue improvement: Ballooning of cell: 0%
  Liver tissue improvement: Moderation of lobule: 0%
  Liver tissue improvement: Fatty degeneration: 0%
  Glisson's capsule improvement: Piecemeal necrosis: 0%
  Liver tissue improvement: Mobilization image of Kupfer cell: 6.3%
  Glisson's capsule improvement: Fibrosis: 0%
  Glisson's capsule improvement: Round cell infiltration: 0%
  Liver tissue improvement: Cobwebby necrosis: 5.9%
  Liver tissue improvement: Degenerative necrosis in cell: 5.9%
[2]; ≥slight
  Liver tissue improvement: Ballooning of cell: 0. %
  Liver tissue improvement: Moderation of lobule: 12.5%
  Liver tissue improvement: Fatty degeneration: 22.2%
  Glisson's capsule improvement: Piecemeal necrosis: 38.5%
  Liver tissue improvement: Mobilization image of Kupfer cell: 50.0%
  Glisson's capsule improvement: Fibrosis: 5.9%
  Glisson's capsule improvement: Round cell infiltration: 17.6%
  Liver tissue improvement: Cobwebby necrosis: 52.9%
  Liver tissue improvement: Degenerative necrosis in cell: 52.9%
[2]; ≥slight, 10/17
  Liver tissue improvement: Evaluation: 58.8%
[3]; 15 mg/day
  Effectiveness (slight or more): 33%
  General judgement: Improvement (slight or more): 36%
  Safety (quite): 91%
  Side effect: 9.4%
[3]; 15 mg/day, 12 weeks
  Total bilirubin change: .dwnarw. *
  γ-GPT change: .dwnarw. +
[3]; 30 mg/day
  Effectiveness (slight or more): 36%
  General judgement: Improvement (slight or more): 37%
  Safety (quite): 94%
  Side effect: 5.6%
[3]; 60 mg/day
  Effectiveness (slight or more): 55%
  General judgement: Improvement (slight or more): 57%
  Safety (quite): 95%
  Side effect: 5.4%
[3]; 60 mg/day, 12 weeks
  GOT change: .dwnarw. *
  GPT change: .dwnarw. **
  Total bilirubin change: .dwnarw. *
  γ-GPT change: .dwnarw. *
  γ-Globulin change: .dwnarw. *
[4]
  effect on secondary phlegmasia after 14 to 28 days: an inhibition effect to a secondary phlegmasia
[5]; 0.1 mg/kg/day oral
  inhibition of phlegmasia (edema area): a recognizable inhibition of the phlegmasia
[5]; 1 mg/kg/day oral
  inhibition of phlegmasia (edema area): a recognizable inhibition of the phlegmasia
[6]; 30 mg/day
  Effectiveness (slight or more): 31%
  General judgement: Improvement (slight or more): 29%
  Safety (quite): 92%
  Side effect: 8.3%
[6]; 60 mg/day
  Effectiveness (slight or more): 44%
  General judgement: Improvement (slight or more): 45%
  Safety (quite): 91%
  Side effect: 8.8%
[6]; 60 mg/day, 12 weeks
  A 1-P change: .dwnarw. **
  GOT change: .dwnarw. **
  GPT change: .dwnarw. *
[6]; 90 mg/day
  Effectiveness (slight or more): 38%
  General judgement: Improvement (slight or more): 41%
  Safety (quite): 90%
  Side effect: 10.0%
[7]; Two-color analysis
  suppressor T lymph cell and other CD8 positive cells: A significant reduction
[7]; after 8 and 12 weeks
  HBe antigen: A significant reduction of HBe antigen
[7]; after 8 weeks
  HBe antibody: Significant increase of HBe antibody
[7]; among 33 HBe antigen positive
  patients changed to SC: 2 Patients
[7]; end of experiment, 4 patients
  patients changed from positive to negative DNA-polymerase: 14%
[7]; in vivo
  improvement in liver functions, HBe antigen positive versus negative groups: no significant difference
[7]; middle or more
  ratio of improvement in functions of liver: 30%
[7]; slight or more
  ratio of improvement in functions of liver: 50%
